Assay results as given in patent US20090047224A1, “Cosmetic Process for Preventing or Treating the Signs of Skin Ageing or the Orange-Peel Appearance” (L'OREAL, priority 2003, published 2009).
Like-named read-outs stand apart in the source and are kept apart here.

Key:
bovine serum albumin = assay: Anti-glycation effect: inhibition of glycation of bovine serum albumin by D-ribose, measured by fluorescence; assay type: biochemical; conditions: for IC50: BSA + D-ribose 100 mM, 37° C., four weeks; for anti-glycation activity: compared with aminoguanidine
Description: A solution of bovine serum albumin at 5 or 10 mg/ml dissolved in phosphate-buffered saline is incubated at 37° C. for four weeks in the presence or absence of the test compounds at a concentration of between 20 and 160 μg/ml, and in the presence or absence of D-ribose at 100 mM.
After this incubation, dialysis of each sample is performed for 24 hours against MilliQ water.
The glycation of the BSA is evaluated by measuring the fluorescence of each sample at λex 320/λex 380 nm (which corresponds to the formation of the pentosidine glycation product) and at λex 370/λex 440 nm (which corresponds to AGEs).
The inhibition of glycation corresponds to a decrease in fluorescence compared with the glycated control (treated with sugar). The concentration of compound leading to a 50% inhibition of glycation, or IC50, is determined.
Aminoguanidine is used as positive control and tested at various concentrations of between 20 and 160 μg/ml.

[1] = Release of ammonia on heating; assay type: physicochemical; conditions: in contrast with aminoguanidine
[2] = test system: supercoiled circular DNA (plasmid pBR322); assay: Antioxidant effect: DNA-protecting effect under simulated daily UV with ferric ions and riboflavin; assay type: biochemical; conditions: 30 minutes simulated daily UV
Description: The DNA-protecting effect of the compounds according to the invention was evaluated by comparison with vitamin C and N-acetylcysteine, which are two well-known antioxidants.
In this test, supercoiled circular DNA (plasmid pBR322, Roche) is placed in solution in the presence of 10 mM phosphate buffer (pH=7) and ferric ions (FeCl3, Sigma) at a concentration of 1 μM and in the presence of riboflavin (Sigma) at a concentration of 0.5 μM. The iron amplifies, via the Fenton reaction, the photo-oxidative impact on the DNA. Its presence also makes it possible to evaluate the potential chelating effect of the N-hydroxy imides according to the invention.
The samples are exposed for 30 minutes to simulated daily UV (attenuated UVB+total UVA) obtained using the Oriel solar simulator equipped with a suitable optical filter and a dichroic mirror. The corresponding spectrum is illustrated in FIG. 3.
The DNA is then subjected to electrophoresis on 1% agarose gel to separate the supercoiled forms, relaxed due to induction of breaks and linearized. After treatment in a gel with the fluorescent intercalating agent ethidium bromide, these three forms may be quantified by densitometry of the agarose gel under UV.

[3] = fluorescence corresponding to AGEs, read-out: λex 370/λex 440 nm IC50
[4] = fluorescence corresponding to formation of the pentosidine glycation product, read-out: λex 320/λex 380 nm IC50

| SMILES | IC50 (bovine serum albumin; [3]) [µM] | IC50 (bovine serum albumin; [4]) [µM] | other results |
| --- | --- | --- | --- |
| N=C(N)NN [Aminoguanidine, reference compound] | 700 | 200 | – |
| O=C1CCC(=O)N1O [Compound 1, N-hydroxysuccinimide] | – | – | anti-glycation activity (bovine serum albumin): more moderate than aminoguanidine; releasing ammonia on heating [1]: not releasing ammonia on heating |
| O=C1C=CC(=O)N1O [Compound 2, N-hydroxymaleimide] | 600 | 800 | – |
| O=C1CCCC(=O)N1O [Compound 6, N-hydroxy-piperidine-2,6-dione] | – | – | anti-glycation activity (bovine serum albumin): more moderate than aminoguanidine |
| CC(=O)N[C@@H](CS)C(=O)O [N-Acetylcysteine, reference compound] | – | – | Score (level of DNA protection) ([2]; Concentration 1 mM): ++ (The score (++) means that the active agent reduces the photodegradation of the DNA by at least 50%) |
| O=C1O[C@H]([C@@H](O)CO)C(O)=C1O [Vitamin C, reference compound] | – | – | Score (level of DNA protection) ([2]; Concentration 1 mM): + (The score (+) means that the active agent reduces the photodegradation of the DNA by at least 20%) |

The next lines start with results.

| IC50 (bovine serum albumin; [3]) [µM] | IC50 (bovine serum albumin; [4]) [µM] | SMILES | other results |
| --- | --- | --- | --- |
| 40 | 30 | O=C1C=C(c2ccccc2)C(=O)N1O [Compound 3, N-hydroxy-2-phenylmaleimide] | Score (level of DNA protection) ([2]; Concentration 0.1 mM): ++ (The score (++) means that the active agent reduces the photodegradation of the DNA by at least 50%) |
| 250 | 200 | O=C1c2ccccc2C(=O)N1O [Compound 4, N-hydroxyphthalimide] | – |
| 45 | 0.8 | O=C1c2cccc3cccc(c23)C(=O)N1O [Compound 5, N,N-(1,8-naphthaloyl)hydroxylamine] | Score (level of DNA protection) ([2]; Concentration 0.01 mM): + (The score (+) means that the active agent reduces the photodegradation of the DNA by at least 20%) |
